Values after ≈ are worked out from the molar mass of the structure shown. Where two headings read alike, the source gives them in different places.
Tests used:
Cercospora arachidicola = test: Fungicidal activity, fungi growth rate method, CA; assay type: cell-based; settings: Mycosphaerella arachidis; 50 μg/mL; read-out: Fungicidal activity, inhibition, CA
Rhizoctonia cerealis = test: Fungicidal activity, fungi growth rate method, RC; assay type: cell-based; settings: Ceratobasidium cereale; 50 μg/mL; read-out: Fungicidal activity, inhibition, RC
Physalospora piricola = test: Fungicidal activity, fungi growth rate method, PP; assay type: cell-based; settings: 50 μg/mL; read-out: Fungicidal activity, inhibition, PP
Botrytis cinerea = test: Fungicidal activity, fungi growth rate method, BC; assay type: cell-based; settings: Botrytis cinerea; 50 μg/mL; read-out: Fungicidal activity, inhibition, BC
[1] = test system: Phytophthora infestans (Mont) de Bary; test: microbe, parasite or virus in culture; assay type: cell-based; settings: Phytophthora infestans, read-out: Fungicidal activity, inhibition, PI
Pellicularia sasakii = test: Fungicidal activity, fungi growth rate method, PS; assay type: cell-based; settings: 50 μg/mL; read-out: Fungicidal activity, inhibition, PS
Alternaria solani = test: Fungicidal activity, fungi growth rate method, AS; assay type: cell-based; settings: Alternaria solani, 50 μg/mL
[2] = test system: tobacco mosaic virus (TMV); test: Anti-TMV inactivation activity (inactivation mode), compound mixed with TMV before inoculation of tobacco leaves; assay type: in vivo; settings: Tobacco mosaic virus, read-out: Anti-TMV activity, Inactivation effect (inhibition)
wheat Gibberella zeae = test: microbe, parasite or virus in culture; assay type: cell-based; settings: Fusarium graminearum
[3] = test system: tobacco mosaic virus (TMV); test: Anti-TMV protective activity (protection mode), live friction inoculation on tobacco seedlings; assay type: in vivo; settings: Tobacco mosaic virus, read-out: Anti-TMV activity, Protection effect (inhibition)
[4] = test system: tobacco mosaic virus (TMV); test: Anti-TMV inducing activity (induction mode), tobacco seedlings; assay type: in vivo; settings: Tobacco mosaic virus, read-out: Anti-TMV activity, Induction effect (inhibition), 100 μg/mL, tobacco seedlings
[5] = test system: tobacco mosaic virus (TMV); test: Anti-TMV curative activity (treatment mode), live friction inoculation on tobacco seedlings; assay type: in vivo; settings: Tobacco mosaic virus, read-out: Anti-TMV activity, Curative effect (inhibition), 100 μg/mL, tobacco seedlings, checked on seventh day
Sclerotinia sclerotiorum = test: microbe, parasite or virus in culture; assay type: cell-based; settings: Sclerotinia sclerotiorum; for inhibition at 50 µg/mL: 50 μg/mL; for EC90: read-out: EC90 against S. sclerotiorum in vitro
[6] = read-out: Fungicidal activity, inhibition, AS
[7] = read-out: Fungicidal activity, inhibition, GZ
[8] = read-out: Fungicidal activity, inhibition, SS
[9] = read-out: Fungicidal activity (inhibition) against SS: Sclerotinia sclerotiorum

| Structure (SMILES) | inhibition at 50 µg/mL (Cercospora arachidicola) | inhibition at 50 µg/mL (Rhizoctonia cerealis) | melting point | inhibition at 50 µg/mL (Physalospora piricola) | inhibition at 50 µg/mL (Botrytis cinerea) | inhibition at 50 µg/mL [1] | inhibition at 50 µg/mL (Pellicularia sasakii) | inhibition at 50 µg/mL (Alternaria solani; [6]) | inhibition at 100 µg/mL [2] | inhibition at 50 µg/mL (wheat Gibberella zeae; [7]) | inhibition at 100 µg/mL [3] | inhibition at 100 µg/mL [4] | inhibition at 100 µg/mL [5] | inhibition at 50 µg/mL (Sclerotinia sclerotiorum; [8]) | inhibition at 50 µg/mL (Alternaria solani; read-out: Fungicidal activity (inhibition) against AS: Alternaria solani) | EC90 (Sclerotinia sclerotiorum) | inhibition at 50 µg/mL (Sclerotinia sclerotiorum; [9]) | inhibition at 50 µg/mL (wheat Gibberella zeae; read-out: Fungicidal activity (inhibition) against GZ: wheat Gibberella zeae) |
| --- | --- | --- | --- | --- | --- | --- | --- | --- | --- | --- | --- | --- | --- | --- | --- | --- | --- | --- |
| O=C(N/C(=C\c1ccc(F)cc1)C(=O)N1CCC(O)(c2ccc(Br)cc2)CC1)c1ccccc1 [Compound 17, (Z)-N-[1-[[4-(4-bromophenyl)-4-hydroxy-1-piperidinyl]carbonyl]-2-(4-fluorophenyl)ethenyl]-benzamide] | 23% | 10% | 266 to 268 °C | 3% | 10% | 27% | 15% | 28% | 1% | 16% | 33% | 3% | 0% | 67% |  |  |  |  |
| O=C(N/C(=C\c1ccc(Cl)cc1)C(=O)N1CCC(O)(c2ccc(Br)cc2)CC1)c1ccccc1 [Compound 18, (Z)-N-[1-[[4-(4-bromophenyl)-4-hydroxy-1-piperidinyl]carbonyl]-2-(4-chlorophenyl)ethenyl]benzamide] | 30% | 29% | 210 to 212 °C | 27% | 34% | 31% | 29% | 43% | 27% | 49% | 39% | 34% | 0% | 93% | 43% | 381 µg/mL (≈ 706 µM) |  |  |
| O=C(N/C(=C\c1ccc(Br)cc1)C(=O)N1CCC(O)(c2ccc(Br)cc2)CC1)c1ccccc1 [Compound 19, (Z)-N-[1-[[4-(4-bromophenyl)-4-hydroxy-1-piperidinyl]carbonyl]-2-(4-bromophenyl)ethenyl]benzamide] | 3% | 19% | 147 to 148 °C | 16% | 4% | 27% | 12% | 21% | 0% | 5% | 46% | 0% | 0% | 44% |  |  |  |  |
| O=C(N/C(=C\c1ccc(C(F)(F)F)cc1)C(=O)N1CCC(O)(c2ccc(Br)cc2)CC1)c1ccccc1 [Compound 20, (Z)-N-[1-[[4-(4-bromophenyl)-4-hydroxy-1-piperidinyl]carbonyl]-2-(4-trifluoromethylphenyl)ethenyl]benzamide] | 16% | 19% | 137 to 139 °C | 10% | 7% | 21% | 21% | 17% | 0% | 7% | 52% | 53% | 0% | 67% |  |  |  |  |
| O=C(N/C(=C\c1cccc(C(F)(F)F)c1)C(=O)N1CCC(O)(c2ccc(Br)cc2)CC1)c1ccccc1 [Compound 21, (Z)-N-[1-[[4-(4-bromophenyl)-4-hydroxy-1-piperidinyl]carbonyl]-2-(3-trifluoromethylphenyl)ethenyl]benzamide] | 25% | 24% | 118 to 120 °C | 8% | 8% | 2% | 17% | 12% | 58% | 19% | 46% | 9% | 35% | 75% |  |  | 60 to 80% |  |
| O=C(N/C(=C\c1ccccc1C(F)(F)F)C(=O)N1CCC(O)(c2ccc(Br)cc2)CC1)c1ccccc1 [Compound 22] | 25% | 26% | 149 to 151 °C | 8% | 8% | 5% | 15% | 12% | 58% | 28% | 0% | 22% | 59% | 100% |  | 199 µg/mL (≈ 347 µM) | 100% |  |
| O=C(N/C(=C\c1ccc([N+](=O)[O-])cc1)C(=O)N1CCC(O)(c2ccc(Br)cc2)CC1)c1ccccc1 [Compound 23, (Z)-N-[1-[[4-(4-bromophenyl)-4-hydroxy-1-piperidinyl]carbonyl]-2-(4-nitrophenyl)ethenyl]benzamide] | 10% | 26% | 186 to 188 °C | 10% | 7% | 17% | 33% | 25% | 4% | 19% | 59% | 11% | 0% | 67% |  |  |  |  |
| O=C(N/C(=C\c1c[nH]cn1)C(=O)N1CCC(O)(c2ccc(Br)cc2)CC1)c1ccccc1 [Compound 26, (Z)-N-[1-[[4-(4-bromophenyl)-4-hydroxy-1-piperidinyl]carbonyl]-2-(4-imidazole)ethenyl]benzamide] | 16% | 16% | 176 to 178 °C | 7% | 14% | 19% | 0% | 21% | 21% | 2% | 1% | 1% | 0% | 78% |  |  | 60 to 80% | 77% |

— patent publication US11166460B2, “α-amino acrylate microbicide, and preparation method therefor and uses thereof” (priority 2017, dated 2021)
